Test [1] deals with S. aureus GyrB ATPase (Staphylococcus aureus, UniProt P0A0K8). As to the kind of experiment: S. aureus GyrB ATPase inhibition (ammonium molybdate/malachite green phosphate detection). It is filed as biochemical. The settings on record: compound concentration of 1 μM; read-out: percent inhibition of S. aureus GyrB ATPase. The procedure: S. aureus GyrB ATPase Inhibition Activity: Compounds may be tested for inhibition of S. aureus GyrB ATPase activity using an ammonium molybdate/malachite green-based phosphate detection assay (Lanzetta, P. A., L. J. Alvarez, P. S. Reinach, and O. A. Candia, 1979, 100: 95-97). Assays can be performed in multiwell plates in 30 μl reactions containing: 50 mM Hepes buffer pH 7.5, 75 mM ammonium acetate, 8.0 mM magnesium chloride, 0.5 mM ethylenediaminetetraacetic acid, 5% glycerol, 1.0 mM 1,4-Dithio-DL-threitol, 200 nM bovine serum albumin, 1.0 μg/ml sheared salmon sperm DNA, 250 pM E. coli GyrA, 250 pM S. aureus GyrB, 250 μM ATP, and compound in dimethylsulfoxide. Reactions can be quenched with 30 μl of ammonium molybdate/malachite green detection reagent containing 1.2 mM malachite green hydrochloride, 8.5 mM ammonium molybdate tetrahydrate, and 1 M hydrochloric acid. Plates can be read in an absorbance plate reader at 650 nm and percent inhibition values can be calculated using dimethylsulfoxide (2%)-containing reactions as 0% inhibition and EDTA-containing ([…]) reactions as 100% inhibition controls. An IC50 measurement of compound potency for each compound can be determined from reactions performed in the presence of 10 different compound concentrations.
Sequence of S. aureus GyrB ATPase (P0AES4 whole entry): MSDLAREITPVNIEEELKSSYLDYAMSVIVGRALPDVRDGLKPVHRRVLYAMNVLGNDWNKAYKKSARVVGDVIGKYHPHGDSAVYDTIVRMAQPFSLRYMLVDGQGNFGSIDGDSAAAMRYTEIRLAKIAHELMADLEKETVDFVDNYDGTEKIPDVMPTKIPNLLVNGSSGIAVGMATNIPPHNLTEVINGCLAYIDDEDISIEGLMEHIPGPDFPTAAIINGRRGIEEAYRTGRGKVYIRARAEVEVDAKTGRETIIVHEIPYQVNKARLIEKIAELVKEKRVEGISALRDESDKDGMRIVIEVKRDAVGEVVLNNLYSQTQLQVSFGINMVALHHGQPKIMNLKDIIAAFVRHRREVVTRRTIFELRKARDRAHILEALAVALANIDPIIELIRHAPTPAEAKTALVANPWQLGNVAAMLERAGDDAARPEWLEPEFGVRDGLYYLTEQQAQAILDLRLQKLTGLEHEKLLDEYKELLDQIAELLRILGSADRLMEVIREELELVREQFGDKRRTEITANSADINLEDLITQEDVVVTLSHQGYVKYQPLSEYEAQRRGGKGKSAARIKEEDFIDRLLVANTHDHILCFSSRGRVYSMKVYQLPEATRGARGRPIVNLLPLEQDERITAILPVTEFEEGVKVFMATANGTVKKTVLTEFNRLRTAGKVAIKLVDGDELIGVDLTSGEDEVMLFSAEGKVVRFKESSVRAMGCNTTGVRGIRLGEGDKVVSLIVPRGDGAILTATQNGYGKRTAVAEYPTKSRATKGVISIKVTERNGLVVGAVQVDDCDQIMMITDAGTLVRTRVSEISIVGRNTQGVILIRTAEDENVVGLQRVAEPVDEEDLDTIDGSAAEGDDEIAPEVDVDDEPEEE
Sequence of S. aureus GyrB ATPase (P0A0K8 whole entry): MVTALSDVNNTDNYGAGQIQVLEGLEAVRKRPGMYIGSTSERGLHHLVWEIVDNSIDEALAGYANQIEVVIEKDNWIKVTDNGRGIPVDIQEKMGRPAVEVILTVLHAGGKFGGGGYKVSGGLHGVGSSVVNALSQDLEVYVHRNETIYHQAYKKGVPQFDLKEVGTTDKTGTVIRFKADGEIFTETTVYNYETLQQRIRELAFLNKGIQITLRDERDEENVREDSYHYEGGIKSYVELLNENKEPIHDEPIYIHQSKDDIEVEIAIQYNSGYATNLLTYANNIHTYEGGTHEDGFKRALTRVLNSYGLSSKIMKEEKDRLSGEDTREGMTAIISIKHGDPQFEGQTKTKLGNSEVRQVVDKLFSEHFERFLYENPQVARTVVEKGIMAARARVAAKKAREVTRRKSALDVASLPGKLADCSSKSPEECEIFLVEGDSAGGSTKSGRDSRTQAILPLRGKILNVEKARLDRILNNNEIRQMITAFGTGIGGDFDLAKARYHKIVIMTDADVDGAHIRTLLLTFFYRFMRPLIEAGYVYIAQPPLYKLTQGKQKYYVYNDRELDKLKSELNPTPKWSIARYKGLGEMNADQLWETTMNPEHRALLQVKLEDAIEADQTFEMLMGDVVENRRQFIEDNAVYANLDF

In test [2] the test system is Streptococcus pneumoniae. The test can be described thus: Bacterial susceptibility testing in liquid media (MIC). It is filed as cell-based. The settings on record: lowest drug concentration able to reduce growth by 80% or more, read-out: MIC against Streptococcus pneumoniae. The text has this:
Compounds may be tested for antimicrobial activity by susceptibility testing in liquid media. Compounds may be dissolved in dimethylsulfoxide and tested in 10 doubling dilutions in the susceptibility assays. The organisms used in the assay may be grown overnight on suitable agar media and then suspended in a liquid medium appropriate for the growth of the organism. The suspension can be a 0.5 McFarland and a further 1 in 10 dilution can be made into the same liquid medium to prepare the final organism suspension in 100 μL. Plates can be incubated under appropriate conditions at 37° C. for 24 hrs prior to reading. The Minimum Inhibitory Concentration (MIC) may be determined as the lowest drug concentration able to reduce growth by 80% or more.

In test [3] the target is E. coli Topoisomerase IV ATPase (Escherichia coli, UniProt P20083). The test can be described thus: E. coli Topoisomerase IV ATPase inhibition. It counts as biochemical. The procedure:
E. coli Topoisomerase IV ATPase Inhibition Activity: Compounds can be tested for inhibition of E. coli topoisomerase IV ATPase activity as described above for E. coli GyrB except the 30 μl reactions contained the following: 20 mM TRIS buffer pH 8, 50 mM ammonium acetate, 8 mM magnesium chloride, 5% glycerol, 5 mM 1,4-Dithio-DL-threitol, 0.005% Brij-35, 5 μg/ml sheared salmon sperm DNA, 500 pM E. coli ParC, 500 pM E. coli ParE, 160 μM ATP, and compound in dimethylsulfoxide. An IC50 measurement of compound potency for each compound can be determined from reactions performed in the presence of 10 different compound concentrations.

For test [4], the target named is E. coli GyrB ATPase (Escherichia coli, UniProt P0AES6). As to the kind of experiment: E. coli GyrB ATPase inhibition (ammonium molybdate/malachite green phosphate detection). It counts as biochemical. The procedure: E. coli GyrB ATPase Inhibition Activity: Compounds can be tested for inhibition of E. coli GyrB ATPase activity using an ammonium molybdate/malachite green-based phosphate detection assay (Lanzetta, P. A., L. J. Alvarez, P. S. Reinach, and O. A. Candia, 1979, 100: 95-97). Assays can be performed in multiwell plates in 30 μl reactions containing: 50 mM Hepes buffer pH 7.5, 75 mM ammonium acetate, 8.0 mM magnesium chloride, 0.5 mM ethylenediaminetetraacetic acid, 5% glycerol, 1 mM 1,4-Dithio-DL-threitol, 200 nM bovine serum albumin, 1.6 μg/ml sheared salmon sperm DNA, 400 pM E. coli GyrA, 400 pM E. coli GyrB, 250 μM ATP, and compound in dimethylsulfoxide. Reactions can be quenched with 30 μl of ammonium molybdate/malachite green detection reagent containing 1.2 mM malachite green hydrochloride, 8.5 mM ammonium molybdate tetrahydrate, and 1 M hydrochloric acid. Plates can be read in an absorbance plate reader at 650 nm and percent inhibition values are calculated using dimethylsulfoxide (2%)-containing reactions as 0% inhibition and EDTA-containing (2.4 μM) reactions as 100% inhibition controls. An IC50 measurement of compound potency for each compound can be determined from reactions performed in the presence of 10 different compound concentrations.

In brackets after ≈: the same amount, converted by molar mass.

Sequence of E. coli Topoisomerase IV ATPase (P0AFI2 whole entry): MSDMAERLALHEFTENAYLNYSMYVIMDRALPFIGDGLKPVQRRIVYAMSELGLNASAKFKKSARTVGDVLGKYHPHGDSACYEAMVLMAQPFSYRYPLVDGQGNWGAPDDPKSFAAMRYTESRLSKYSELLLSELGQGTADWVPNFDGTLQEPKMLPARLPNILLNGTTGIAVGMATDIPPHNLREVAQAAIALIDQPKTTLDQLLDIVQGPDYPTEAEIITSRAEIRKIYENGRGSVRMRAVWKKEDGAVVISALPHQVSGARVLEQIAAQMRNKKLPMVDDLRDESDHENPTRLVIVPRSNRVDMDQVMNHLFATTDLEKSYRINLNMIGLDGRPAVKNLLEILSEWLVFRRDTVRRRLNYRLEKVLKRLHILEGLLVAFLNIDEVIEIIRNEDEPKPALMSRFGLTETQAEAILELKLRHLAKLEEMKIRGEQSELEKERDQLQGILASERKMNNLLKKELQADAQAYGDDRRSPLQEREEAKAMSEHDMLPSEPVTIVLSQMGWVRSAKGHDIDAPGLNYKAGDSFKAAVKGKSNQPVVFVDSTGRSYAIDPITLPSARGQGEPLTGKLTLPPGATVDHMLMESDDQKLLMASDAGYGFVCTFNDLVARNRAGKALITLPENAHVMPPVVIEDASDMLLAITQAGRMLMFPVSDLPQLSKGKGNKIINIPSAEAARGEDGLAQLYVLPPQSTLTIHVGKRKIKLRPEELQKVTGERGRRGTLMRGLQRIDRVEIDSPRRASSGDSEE
Sequence of E. coli Topoisomerase IV ATPase (P20083 whole entry): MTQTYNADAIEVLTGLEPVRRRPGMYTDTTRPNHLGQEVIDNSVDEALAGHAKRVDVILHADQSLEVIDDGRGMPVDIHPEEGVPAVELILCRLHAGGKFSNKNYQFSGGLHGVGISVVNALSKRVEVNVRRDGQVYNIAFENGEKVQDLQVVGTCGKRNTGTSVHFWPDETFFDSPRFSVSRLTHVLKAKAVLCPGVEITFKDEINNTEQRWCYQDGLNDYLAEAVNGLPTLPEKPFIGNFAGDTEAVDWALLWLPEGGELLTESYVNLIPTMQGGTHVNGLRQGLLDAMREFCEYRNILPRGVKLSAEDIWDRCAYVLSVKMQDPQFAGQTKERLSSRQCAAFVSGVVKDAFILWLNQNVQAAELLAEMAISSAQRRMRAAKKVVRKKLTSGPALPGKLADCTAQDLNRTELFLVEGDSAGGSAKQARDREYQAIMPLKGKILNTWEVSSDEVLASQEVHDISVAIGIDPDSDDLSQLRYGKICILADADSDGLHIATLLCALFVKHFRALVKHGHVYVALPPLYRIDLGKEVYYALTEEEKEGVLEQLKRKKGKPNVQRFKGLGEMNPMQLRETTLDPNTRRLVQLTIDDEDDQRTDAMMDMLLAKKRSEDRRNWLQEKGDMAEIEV

For the compound `CCNC(=O)Nc1cc(C#Cc2ccccn2)c(-c2cncc(-c3n[nH]c(=O)o3)c2)cn1` [Example 1, 1-ethyl-3-(5′-(5-oxo-4,5-dihydro-1,3,4-oxadiazol-2-yl)-4-(pyridin-2-ylethynyl)-3,3′-bipyridin-6-yl)urea], the inhibition at 1 µM in test [1] amounted to 102%. Besides, the MIC in test [2] came to 0.2 µM (≈ 0.0855 µg/mL). The half-maximal inhibitory concentration (IC50) in test [3] and in test [4] was less than 200 µM in each case.

What is called inhibition is the relative decrease from the control value, in per cent. Usually MIC stands for the lowest concentration that inhibits growth of the organism. The IC50 is the concentration at which inhibition is half-maximal.

The values are drawn from patent US20090325902A1, “HETEROCYCLIC UREA DERIVATIVES AND METHODS OF USE THEREOF” (ASTRAZENECA AB, priority 2008, published 2009).
